Entries after “also recorded” stand apart in the source; their conditions may differ. Ends that are not written are not given here.
Assays:
Format in all cases: cell-based, human
[1] = test system: peptide-pulsed A24LCL cells; assay: IFN-gamma ELISPOT assay on CTLs induced with HLA-A*2402 restricted peptides; conditions: against peptide-pulsed target cells compared with control without peptide
[2] = test system: peptide-pulsed A24LCL cells; assay: IFN-gamma ELISA assay on CTL lines (HLA-A*2402); conditions: target cells pulsed with corresponding peptide vs without peptide
[3] = test system: peptide-pulsed T2 cells; assay: IFN-gamma ELISPOT assay on CTLs induced with HLA-A*0201 restricted peptides; conditions: against peptide-pulsed target cells compared with control without peptide
[4] = test system: peptide-pulsed T2 cells; assay: IFN-gamma ELISA assay on CTL lines (HLA-A*0201); conditions: target cells pulsed with corresponding peptide vs without peptide
[5] = test system: peptide-pulsed T2 cells; assay: IFN-gamma ELISA assay on CTL clones established by limiting dilution (HLA-A*0201); conditions: peptide-pulsed target cells
Description: The dilutions were made to have 0.3, 1, and 3 CTLs/well in 96 round-bottomed micro titer plate (Nalge Nunc International). CTLs were cultured with 1×10^4 cells/well of 2 kinds of human B-lymphoblastoid cell lines, 30 ng/ml of anti-CD3 antibody, and 125 U/ml of IL-2 in a total of 150 and/well of AIM-VMedium containing 5% AS. 50 mcl/well of IL-2 were added to the medium 10 days later so to reach a final concentration of 125 U/ml IL-2. CTL activity was tested on the 14th day, and CTL clones were expanded using the same method as described above (Uchida N et al., Clin Cancer Res 2004 Dec. 15, 10(24): 8577-86; Suda T et al., Cancer Sci 2006 May, 97(5): 411-9; Watanabe T et al., Cancer Sci 2005 August, 96(8): 498-506).
Specifically, peptide-pulsed A24 or T2 LCL (1×10^4/well) was prepared as stimulator cells. Cultured cells in 48 wells were used as responder cells. IFN-gamma ELISPOT assay and IFN-gamma ELISA assay were performed under manufacture procedure.

With AYQHLFYLL [SEQ ID NO: 2] the “IFN-gamma production of peptide-induced CTLs (ELISPOT)” value (“IFN-gamma production … (ELISPOT)” for short) ([1]; listed as IQGAP3-A24-9-955) was “potent IFN-gamma production ability” and the “IFN-gamma production of established CTL lines (ELISA)” value [2] was “potent IFN-gamma production”.
For CFAPSVVPL [SEQ ID NO: 21], the “IFN-gamma production … (ELISPOT)” value ([1]; listed as IQGAP3-A24-9-74) was “potent IFN-gamma production ability” and the “IFN-gamma production of established CTL lines (ELISA)” value [2] was “potent IFN-gamma production”.
“FLAEaELLKL (FLAEAELLKL; not fully specified (residue 5); printed as FLAEaELLKL) [SEQ ID NO: 113]” was tested, and the “IFN-gamma production … (ELISPOT)” value [3] was “no specific IFN-gamma production”.
For FLRTWLPAV [SEQ ID NO: 101], the “IFN-gamma production of established CTL lines (ELISA)” value [4] was “potent IFN-gamma production” and the “IFN-gamma production … (ELISPOT)” value ([3]; listed as IQGAP3-A02-9-756) was “potent IFN-gamma production ability”.
In the case of “GLLVkNRITL (GLLVKNRITL; not fully specified (residue 5); printed as GLLVkNRITL) [SEQ ID NO: 130]”, the “IFN-gamma production of established CTL lines (ELISA)” value [4] is reported as “potent IFN-gamma production”, the “IFN-gamma production … (ELISPOT)” value ([3]; listed as IQGAP3-A02-10-903) is reported as “potent IFN-gamma production ability” and the “IFN-gamma production of CTL clones (ELISA)” value ([5]; listed as IQGAP3-A02-10-903) is reported as “potent IFN-gamma production”.
With “GLVDeLAKDI (GLVDELAKDI; not fully specified (residue 5); printed as GLVDeLAKDI) [SEQ ID NO: 145]” the “IFN-gamma production of established CTL lines (ELISA)” value [4] was “potent IFN-gamma production”, the “IFN-gamma production … (ELISPOT)” value ([3]; listed as IQGAP3-A02-10-1461) was “potent IFN-gamma production ability” and the “IFN-gamma production of CTL clones (ELISA)” value ([5]; listed as IQGAP3-A02-10-1461) was “potent IFN-gamma production”.
In the case of HALGAVAQLL [SEQ ID NO: 67], the “IFN-gamma production … (ELISPOT)” value ([1]; listed as IQGAP3-A24-10-1207) is reported as “potent IFN-gamma production ability” and the “IFN-gamma production of established CTL lines (ELISA)” value [2] is reported as “potent IFN-gamma production”.
With “ILVHaPHPPL (ILVHAPHPPL; not fully specified (residue 5); printed as ILVHaPHPPL) [SEQ ID NO: 148]” the “IFN-gamma production of established CTL lines (ELISA)” value [4] was “potent IFN-gamma production” and the “IFN-gamma production … (ELISPOT)” value ([3]; listed as IQGAP3-A02-10-842) was “potent IFN-gamma production ability”.
IMDkIGLLV [SEQ ID NO: 150] was tested, and the “IFN-gamma production of established CTL lines (ELISA)” value [4] was “potent IFN-gamma production” and the “IFN-gamma production … (ELISPOT)” value ([3]; listed as IQGAP3-A02-10-897) was “potent IFN-gamma production ability”.
For KALQDPALAL [SEQ ID NO: 57], the “IFN-gamma production … (ELISPOT)” value ([1]; listed as IQGAP3-A24-10-314) was “potent IFN-gamma production ability” and the “IFN-gamma production of established CTL lines (ELISA)” value [2] was “potent IFN-gamma production”.
In the case of KAQELGLVEL [SEQ ID NO: 53], the “IFN-gamma production … (ELISPOT)” value ([1]; listed as IQGAP3-A24-10-345) is reported as “potent IFN-gamma production ability” and the “IFN-gamma production of established CTL lines (ELISA)” value [2] is reported as “potent IFN-gamma production”.
KIGGILANEL [SEQ ID NO: 56] was tested, and the “IFN-gamma production … (ELISPOT)” value ([1]; listed as IQGAP3-A24-10-191) was “potent IFN-gamma production ability” and the “IFN-gamma production of established CTL lines (ELISA)” value [2] was “potent IFN-gamma production”.
With “KLGHcFAPSV (KLGHCFAPSV; not fully specified (residue 5); printed as KLGHcFAPSV) [SEQ ID NO: 114]” the “IFN-gamma production of established CTL lines (ELISA)” value [4] was “potent IFN-gamma production” and the “IFN-gamma production … (ELISPOT)” value ([3]; listed as IQGAP3-A02-10-70) was “potent IFN-gamma production ability”.
KVNVNLLIFL [SEQ ID NO: 55] was tested, and the “IFN-gamma production … (ELISPOT)” value ([1]; listed as IQGAP3-A24-10-1614) was “potent IFN-gamma production ability” and the “IFN-gamma production of established CTL lines (ELISA)” value [2] was “potent IFN-gamma production”.
For “LEAYqHLFYL (LEAYQHLFYL; not fully specified (residue 5); printed as LEAYqHLFYL) [SEQ ID NO: 139]”, the “IFN-gamma production of established CTL lines (ELISA)” value [4] was “potent IFN-gamma production” and the “IFN-gamma production … (ELISPOT)” value ([3]; listed as IQGAP3-A02-10-953) was “potent IFN-gamma production ability”.
In the case of “LLAKlGHCFA (LLAKLGHCFA; not fully specified (residue 5); printed as LLAKlGHCFA) [SEQ ID NO: 143]”, the “IFN-gamma production of established CTL lines (ELISA)” value [4] is reported as “potent IFN-gamma production”, the “IFN-gamma production … (ELISPOT)” value ([3]; listed as IQGAP3-A02-10-67) is reported as “potent IFN-gamma production ability” and the “IFN-gamma production of CTL clones (ELISA)” value ([5]; listed as IQGAP3-A02-10-67) is reported as “potent IFN-gamma production”.
With “LLPAaGLDDV (LLPAAGLDDV; not fully specified (residue 5); printed as LLPAaGLDDV) [SEQ ID NO: 125]” the “IFN-gamma production of established CTL lines (ELISA)” value [4] was “potent IFN-gamma production” and the “IFN-gamma production … (ELISPOT)” value ([3]; listed as IQGAP3-A02-10-548) was “potent IFN-gamma production ability”.
MYQLELAVL [SEQ ID NO: 6] was tested, and the “IFN-gamma production … (ELISPOT)” value ([1]; listed as IQGAP3-A24-9-417) was “typical negative data of CTL response; also recorded: no specific IFN-gamma production”, the “IFN-gamma production of established CTL lines (ELISA)” value [2] was “no specific IFN-gamma production” and the “IFN-gamma production of established CTL lines (ELISA)” value ([2]; listed as IQGAP3-A24-9-417) was “typical negative data of CTL response”.
For PYDVTPEQAL [SEQ ID NO: 49], the “IFN-gamma production … (ELISPOT)” value ([1]; listed as IQGAP3-A24-10-1097) was “potent IFN-gamma production ability” and the “IFN-gamma production of established CTL lines (ELISA)” value [2] was “potent IFN-gamma production”.
In the case of “QLHYqDLLQL (QLHYQDLLQL; not fully specified (residue 5); printed as QLHYqDLLQL) [SEQ ID NO: 140]”, the “IFN-gamma production of established CTL lines (ELISA)” value [4] is reported as “potent IFN-gamma production” and the “IFN-gamma production … (ELISPOT)” value ([3]; listed as IQGAP3-A02-10-1590) is reported as “potent IFN-gamma production ability”.
With QYEGVAVMKL [SEQ ID NO: 35] the “IFN-gamma production … (ELISPOT)” value ([1]; listed as IQGAP3-A24-10-1600) was “potent IFN-gamma production ability” and the “IFN-gamma production of established CTL lines (ELISA)” value [2] was “potent IFN-gamma production”.
RLDIALRNLL [SEQ ID NO: 63] was tested, and the “IFN-gamma production … (ELISPOT)” value ([1]; listed as IQGAP3-A24-10-1114) was “potent IFN-gamma production ability” and the “IFN-gamma production of established CTL lines (ELISA)” value [2] was “potent IFN-gamma production”.
In the case of RNGVLLAKL [SEQ ID NO: 32], the “IFN-gamma production … (ELISPOT)” value ([1]; listed as IQGAP3-A24-9-63) is reported as “potent IFN-gamma production ability” and the “IFN-gamma production of established CTL lines (ELISA)” value [2] is reported as “potent IFN-gamma production”.
With RQNVAYQYL [SEQ ID NO: 25] the “IFN-gamma production … (ELISPOT)” value ([1]; listed as IQGAP3-A24-9-26) was “potent IFN-gamma production ability” and the “IFN-gamma production of established CTL lines (ELISA)” value [2] was “potent IFN-gamma production”.
In the case of RSLLLSTKQL [SEQ ID NO: 62], the “IFN-gamma production … (ELISPOT)” value ([1]; listed as IQGAP3-A24-10-1363) is reported as “potent IFN-gamma production ability” and the “IFN-gamma production of established CTL lines (ELISA)” value [2] is reported as “potent IFN-gamma production”.
With RVVYCIHAL [SEQ ID NO: 29] the “IFN-gamma production … (ELISPOT)” value ([1]; listed as IQGAP3-A24-9-137) was “potent IFN-gamma production ability” and the “IFN-gamma production of established CTL lines (ELISA)” value [2] was “potent IFN-gamma production”.
In the case of “SMYQlELAVL (SMYQLELAVL; not fully specified (residue 5); printed as SMYQlELAVL) [SEQ ID NO: 142]”, the “IFN-gamma production of established CTL lines (ELISA)” value [4] is reported as “potent IFN-gamma production” and the “IFN-gamma production … (ELISPOT)” value ([3]; listed as IQGAP3-A02-10-416) is reported as “potent IFN-gamma production ability”.
VYCIHALSLF [SEQ ID NO: 40] was tested, and the “IFN-gamma production … (ELISPOT)” value ([1]; listed as IQGAP3-A24-10-139) was “potent IFN-gamma production ability” and the “IFN-gamma production of established CTL lines (ELISA)” value [2] was “potent IFN-gamma production”.
In the case of VYKVVGNLL [SEQ ID NO: 4], the “IFN-gamma production … (ELISPOT)” value ([1]; listed as IQGAP3-A24-9-1167) is reported as “potent IFN-gamma production ability” and the “IFN-gamma production of established CTL lines (ELISA)” value [2] is reported as “potent IFN-gamma production”.
For “YLLQtQPIYL (YLLQTQPIYL; not fully specified (residue 5); printed as YLLQtQPIYL) [SEQ ID NO: 111]”, the “IFN-gamma production of established CTL lines (ELISA)” value [4] was “potent IFN-gamma production” and the “IFN-gamma production … (ELISPOT)” value ([3]; listed as IQGAP3-A02-10-961) was “potent IFN-gamma production ability”.
For YYSQYIRACL [SEQ ID NO: 37], the “IFN-gamma production … (ELISPOT)” value ([1]; listed as IQGAP3-A24-10-1507) was “potent IFN-gamma production ability” and the “IFN-gamma production of established CTL lines (ELISA)” value [2] was “potent IFN-gamma production”.
